Values quoted from earlier work, collected in patent US6838451B1, “Methods and compositions for the prevention and treatment of inflammation, osteoarthritis, and other degenerative joint diseases” (Pharmanutrients, priority 2000, dated 2005).

Columns and labels:
[1] = dietary supplement

excreted as exhaled carbon dioxide (of the absorbed glucosamine)	excreted in the urine (of the absorbed glucosamine)	remaining in the tissues (of the absorbed glucosamine)	absorbed from the small intestine (sulfate form)	Compound	toxicity [1]
65%	25%	10%	over 90%	N[C@H]1C(O)O[C@H](CO)[C@@H](O)[C@@H]1O (some centres unmarked) [glucosamine]	–
–	–	–	–	conjugated linoleic acid	nontoxic
